Data from patent US20090019557A1, “FGF2-RELATED METHODS FOR DIAGNOSING AND TREATING DEPRESSION” (priority 2005, published 2009).

Columns and labels:
rats [1] = assay: Forced swim test (FST) after microinjection; assay type: in vivo; details: versus controls
Text: (§1) This is indicative of less depression-like behavior in FGF2 animals.
(§2) Again, this is an index of less depression-like behavior. This is also in the same direction as the FGF2 data, consistent with the fact that both FGF2 and NCAM interact with the FGF receptor.
(§3) These observations are nevertheless consistent with the conclusions drawn from the microinjection studies above.

rats [2] = assay: Elevated plus maze (EPM) after acute microinjection; assay type: in vivo; details: versus controls
Text: as §1, §2, §3

Sprague-Dawley rats = assay: Morris water maze learning and memory test in adults after early postnatal FGF2; assay type: in vivo; details: 20 ng/g s.c. the day after birth, tested as adults
Protocol: (§4) Methods. Sprague-Dawley rats were injected with either vehicle or FGF2 (20 ng/g, s.c.) the day after birth and sacrificed after Morris water maze testing as adults. We assessed changes in gene expression using both a candidate approach and a gene discovery approach with laser-capture microdissection of the dentate gyrus followed by microarray analyses.

[3] = test system: FGFR2 and FGFR3 exon IIIc:IIIb splice variants; assay: Real time RT-PCR of exon IIIc:IIIb splice variant ratio in frontal cortex, chronic unpredictable stress; assay type: in vivo, rats; details: 5 ng/g i.p. every 48 hours for three weeks
Protocol: Animals. Twenty-four male Sprague-Dawley rats weighing 220-250 g were ordered from Charles River (Wilmington, Mass.) and remained undisturbed for one week to acclimatize to housing conditions. The animals were housed in pairs on a 12 h light-dark cycle (lights on 6:00 A.M.) with food and water available ad libitum. All experiments were conducted in accordance with the NIH Guide for the Care and Use of Animals and the University Committee on the Use and Care of Animals.
FGF2 injection treatments and chronic unpredictable stress (CUS) conditions. […]
Total RNA extraction. […] Using the Bioanalyzer's concentration readings, the samples were normalized to 25 ng/μL of total RNA per subject and stored at −80° C.
cDNA synthesis. cDNA was synthesized using the iScript cDNA Synthesis Kit (Bio-Rad, Hercules, Calif.). […] The double-stranded cDNA solutions were then analyzed for quality and concentration using Invitrogen's Quant-iT PicoGreen dsDNA kit. […] The fluorescently labeled samples were analyzed with a 1420 Victor^2 Multilabel Counter (EG&G Wallac, Wellesley, Mass.) using the basic Fluorescein protocol. […]
Real time RT-PCR primer design. […] Exon sequences were analyzed using NCBI's nucleotide and protein BLAST and were matched with their corresponding protein products within the receptor structures (FIG. 11). […]

rats [4] = assay: Elevated plus-maze (EPM) and light-dark (LD) anxiety tests after chronic FGF2; assay type: in vivo; details: 5 ng/g i.p. every 48 hours for 3 weeks
Protocol: Anxiety disorders have a high comorbidity with other neuropsychiatric disorders including Major Depression (MD). […] Rats were placed into “high anxiety” (LR) or “low anxiety” (HR) groups based on their behavior in a variety of motor and behavioral tests. Both groups of animals were administered either FGF2 (5 ng/g) or vehicle by intraperitoneal injection every 48 hours for 3 weeks. One day after the last FGF2 injection, all animals were tested in the elevated plus-maze (EPM) and light-dark (LD) anxiety test.
The apparatus for the EPM test is constructed of black Plexiglass with […] (70 cm from the floor, 45 cm long, and 12 cm wide). Illumination is provided by a 40-watt desk lamp facing a wall and placed behind one of the closed arms. The scientists put the animal inside the system. Animals that are less anxious spend more time in the open arms whereas animals that are more anxious spend less time in the open arms.
The LD test is conducted in a 30×60×30-cm Plexiglas shuttle box with a translucent cover. Each box is divided into two equal-sized compartments by a wall with a 12 cm-wide open door. One compartment is painted white and brightly illuminated, and the other is painted black with very dim light. The time each rat spends in each compartment is monitored by rows of five photocells located 2.5 cm above the grid floor of each compartment. […]

[5] = test system: GAP-43, Rgs4, trkb, CCK, SST, Vgf, NCAM expression; assay: Hippocampal (dentate gyrus) gene expression in adult rats after early postnatal FGF2; assay type: in vivo; details: FGF2 20 ng/g s.c. the day after birth
Protocol: as §4
Results. […] Several genes associated with neural plasticity were also found altered in the adult rats, as shown by histochemical and RNA expression assays. For example, expression of GAP-43, Rgs4, trkb, CCK, SST, and Vgf was increased, while expression of NCAM was decreased.

| Substance | climbing in FST (rats [1]) | immobility in FST (rats [1]) | swimming in FST (rats [1]) | time in the center quadrant of EPM (rats [2]) | time in the closed arms of EPM (rats [2]) | time in the open arms of EPM (rats [2]) | time on average to find a hidden platform in Morris Water maze test (Sprague-Dawley rats) | performance in learning and memory tests (Sprague-Dawley rats; versus vehicle) | effect on magnitude of IIIc:IIIb ratio changes caused by stress [3] | effect on exon IIIc:IIIb ratio ([3]; NS or S group, P>0.1) | anxiety versus vehicle animals (rats [4]; tested one day after last injection) | anxiety-reducing effect in innately more anxious (LR) rats (rats [4]; LR versus HR rats) | expression of CCK [5] | expression of NCAM [5] | expression of Rgs4 [5] | expression of SST [5] | expression of Vgf [5] | expression of trkb [5] | expression of GAP-43 ([5]; histochemical and RNA expression assays) |
| --- | --- | --- | --- | --- | --- | --- | --- | --- | --- | --- | --- | --- | --- | --- | --- | --- | --- | --- | --- |
| HFKDPKRLY [FGF system peptide inhibitor] | significantly less climbing | more immobility | less swimming | significantly more time | less time | equal time | – | – | – | – | – | – | – | – | – | – | – | – | – |
| EVYVVAENQQGKSKA [NCAM] | – | less immobility | – | significantly less time | more time (although not significantly more time) | less time | – | – | – | – | – | – | – | – | – | – | – | – | – |
| FGF2: human recombinant FGF2 (Sigma); ligand of the FGF receptor | – | less immobility | more swimming | – | significantly more time | less time | 20 s | significantly better | nor did it significantly affect | did not alter the IIIc:IIIb ratio significantly | less anxious | clearly more pronounced | increased | decreased | increased | increased | increased | increased | increased |
